Values after ≈ are worked out from the molar mass of the structure shown. Active and inactive are the calls of the source. The calls are words filed in the database; no cut-off is given here.
How the values were obtained:
[1] = tested on: RAW264.7; test: Induction of iNOS mRNA expression in LPS-non-stimulated mouse RAW264.7 cells by RT-PCR method; assay type: cell-based
[2] = tested on: RAW264.7; test: Antiinflammatory activity in LPS-stimulated mouse RAW264.7 cells assessed as reduction in TNFalpha expression at 120 uM co-incubated with LPS for 24 hrs by RT-PCR method relative to untreated control; assay type: functional
[3] = tested on: RAW264.7; test: Antiinflammatory activity in LPS-stimulated mouse RAW264.7 cells assessed as reduction in IL6 level at 40 uM co-incubated with LPS for 24 hrs by ELISA method; assay type: functional, cell-based
[4] = tested on: RAW264.7; test: Antiinflammatory activity in LPS-stimulated mouse RAW264.7 cells assessed as reduction in iNOS expression co-incubated with LPS for 24 hrs by RT-PCR method relative to untreated control; assay type: functional, cell-based
[5] = tested on: RAW264.7; test: Antiinflammatory activity in LPS-stimulated mouse RAW264.7 cells assessed as reduction in TNFalpha expression at 40 uM co-incubated with LPS for 24 hrs by RT-PCR method relative to untreated control; assay type: functional
[6] = tested on: RAW264.7; test: Antiinflammatory activity in LPS-stimulated mouse RAW264.7 cells assessed as reduction in IL6 expression at 80 uM co-incubated with LPS for 24 hrs by RT-PCR method relative to untreated control; assay type: functional
[7] = tested on: RAW264.7; test: Antiinflammatory activity in LPS-stimulated mouse RAW264.7 cells assessed as reduction in iNOS expression at 120 uM co-incubated with LPS for 24 hrs by RT-PCR method relative to untreated control; assay type: functional
[8] = tested on: RAW264.7; test: Antiinflammatory activity in LPS-stimulated mouse RAW264.7 cells assessed as reduction in COX2 expression at 40 uM co-incubated with LPS for 24 hrs by RT-PCR method relative to untreated control; assay type: functional
[9] = tested on: RAW264.7; test: Antiinflammatory activity in LPS-stimulated mouse RAW264.7 cells assessed as reduction in COX2 expression at 120 uM co-incubated with LPS for 24 hrs by RT-PCR method relative to untreated control; assay type: functional
[10] = tested on: RAW264.7; test: Antiinflammatory activity in LPS-stimulated mouse RAW264.7 cells assessed as reduction in IL6 expression at 120 uM co-incubated with LPS for 24 hrs by RT-PCR method relative to untreated control; assay type: functional
[11] = tested on: RAW264.7; test: Antiinflammatory activity in LPS-stimulated mouse RAW264.7 cells assessed as reduction in iNOS expression at 40 uM co-incubated with LPS for 24 hrs by RT-PCR method relative to untreated control; assay type: functional
[12] = tested on: RAW264.7; test: Antiinflammatory activity in LPS-stimulated mouse RAW264.7 cells assessed as reduction in IL-1beta expression at 120 uM co-incubated with LPS for 24 hrs by RT-PCR method relative to untreated control; assay type: functional
[13] = tested on: RAW264.7; test: Antiinflammatory activity in LPS-stimulated mouse RAW264.7 cells assessed as reduction in nitric oxide production after 24 hrs by Griess method based ELISA; assay type: functional, cell-based; settings: RAW264.7, 24 h
[14] = Cytotoxicity against LPS-stimulated mouse RAW264.7 cells assessed as cell viability at 120 uM after 24 hrs by MTT assay (reference value: 100%); assay type: cell-based; settings: LPS-stimulated RAW264.7 cells, read-out: Activity
[15] = Cytotoxicity against LPS-stimulated mouse RAW264.7 cells assessed as cell viability at 80 uM after 24 hrs by MTT assay (reference value: 100%); assay type: cell-based; settings: LPS-stimulated RAW264.7 cells, read-out: Activity
[16] = tested on: RAW264.7; test: Antiinflammatory activity in LPS-stimulated mouse RAW264.7 cells assessed as reduction in nitric oxide production at 120 uM after 24 hrs by Griess method based ELISA (reference value: 52.4 +/- 0.9 uM); assay type: functional
[17] = tested on: RAW264.7; test: Antiinflammatory activity in LPS-stimulated mouse RAW264.7 cells assessed as reduction in nitric oxide production at 80 uM after 24 hrs by Griess method based ELISA (reference value: 52.4 +/- 0.9 uM); assay type: functional
[18] = tested on: RAW264.7; test: Antiinflammatory activity in LPS-stimulated mouse RAW264.7 cells assessed as reduction in IL6 expression at 40 uM co-incubated with LPS for 24 hrs by RT-PCR method relative to untreated control; assay type: functional
[19] = tested on: RAW264.7; test: Antiinflammatory activity in LPS-stimulated mouse RAW264.7 cells assessed as reduction in COX2 expression at 80 uM co-incubated with LPS for 24 hrs by RT-PCR method relative to untreated control; assay type: functional
[20] = tested on: RAW264.7; test: Antiinflammatory activity in LPS-stimulated mouse RAW264.7 cells assessed as reduction in IL-1beta expression at 40 uM co-incubated with LPS for 24 hrs by RT-PCR method relative to untreated control; assay type: functional
[21] = tested on: RAW264.7; test: Antiinflammatory activity in LPS-stimulated mouse RAW264.7 cells assessed as reduction in IL-1beta expression at 80 uM co-incubated with LPS for 24 hrs by RT-PCR method relative to untreated control; assay type: functional
[22] = Cytotoxicity against LPS-stimulated mouse RAW264.7 cells assessed as cell viability at 40 uM after 24 hrs by MTT assay (reference value: 100%); assay type: cell-based; settings: LPS-stimulated RAW264.7 cells, read-out: Activity
[23] = tested on: RAW264.7; test: Antiinflammatory activity in LPS-stimulated mouse RAW264.7 cells assessed as reduction in nitric oxide production at 40 uM after 24 hrs by Griess method based ELISA (reference value: 52.4 +/- 0.9 uM); assay type: functional
[24] = tested on: RAW264.7; test: Antiinflammatory activity in LPS-stimulated mouse RAW264.7 cells assessed as reduction in TNFalpha expression at 80 uM co-incubated with LPS for 24 hrs by RT-PCR method relative to untreated control; assay type: functional
[25] = tested on: RAW264.7; test: Antiinflammatory activity in LPS-stimulated mouse RAW264.7 cells assessed as reduction in iNOS expression at 80 uM co-incubated with LPS for 24 hrs by RT-PCR method relative to untreated control; assay type: functional
[26] = tested on: RAW264.7; test: Antiinflammatory activity in LPS-stimulated mouse RAW264.7 cells assessed as reduction in COX2 expression at 10 uM co-incubated with LPS for 24 hrs by RT-PCR method relative to untreated control; assay type: functional
[27] = Cytotoxicity against LPS-stimulated mouse RAW264.7 cells assessed as cell viability at 10 uM after 24 hrs by MTT assay (reference value: 100%); assay type: cell-based; settings: LPS-stimulated RAW264.7 cells, read-out: Activity
[28] = tested on: RAW264.7; test: Antiinflammatory activity in LPS-stimulated mouse RAW264.7 cells assessed as reduction in TNFalpha expression at 20 uM co-incubated with LPS for 24 hrs by RT-PCR method relative to untreated control; assay type: functional
[29] = tested on: RAW264.7; test: Antiinflammatory activity in LPS-stimulated mouse RAW264.7 cells assessed as reduction in IL6 expression at 30 uM co-incubated with LPS for 24 hrs by RT-PCR method relative to untreated control; assay type: functional
[30] = tested on: RAW264.7; test: Antiinflammatory activity in LPS-stimulated mouse RAW264.7 cells assessed as reduction in IL6 expression at 20 uM co-incubated with LPS for 24 hrs by RT-PCR method relative to untreated control; assay type: functional
[31] = tested on: RAW264.7; test: Antiinflammatory activity in LPS-stimulated mouse RAW264.7 cells assessed as reduction in COX2 expression at 30 uM co-incubated with LPS for 24 hrs by RT-PCR method relative to untreated control; assay type: functional
[32] = tested on: RAW264.7; test: Antiinflammatory activity in LPS-stimulated mouse RAW264.7 cells assessed as reduction in nitric oxide production at 10 uM after 24 hrs by Griess method based ELISA (reference value: 52.4 +/- 0.9 uM); assay type: functional
[33] = tested on: RAW264.7; test: Antiinflammatory activity in LPS-stimulated mouse RAW264.7 cells assessed as reduction in TNFalpha expression at 30 uM co-incubated with LPS for 24 hrs by RT-PCR method relative to untreated control; assay type: functional
[34] = tested on: RAW264.7; test: Antiinflammatory activity in LPS-stimulated mouse RAW264.7 cells assessed as reduction in IL-1beta expression at 20 uM co-incubated with LPS for 24 hrs by RT-PCR method relative to untreated control; assay type: functional
[35] = tested on: RAW264.7; test: Antiinflammatory activity in LPS-stimulated mouse RAW264.7 cells assessed as reduction in TNFalpha level at 10 to 40 uM co-incubated with LPS for 24 hrs by ELISA method; assay type: functional, cell-based
[36] = tested on: RAW264.7; test: Antiinflammatory activity in LPS-stimulated mouse RAW264.7 cells assessed as reduction in IL6 expression at 10 uM co-incubated with LPS for 24 hrs by RT-PCR method relative to untreated control; assay type: functional
[37] = tested on: RAW264.7; test: Antiinflammatory activity in LPS-stimulated mouse RAW264.7 cells assessed as reduction in iNOS expression at 10 uM co-incubated with LPS for 24 hrs by RT-PCR method relative to untreated control; assay type: functional
[38] = Cytotoxicity against LPS-stimulated mouse RAW264.7 cells assessed as cell viability at 20 uM after 24 hrs by MTT assay (reference value: 100%); assay type: cell-based; settings: LPS-stimulated RAW264.7 cells, read-out: Activity
[39] = tested on: RAW264.7; test: Antiinflammatory activity in LPS-stimulated mouse RAW264.7 cells assessed as reduction in iNOS expression at 30 uM co-incubated with LPS for 24 hrs by RT-PCR method relative to untreated control; assay type: functional
[40] = tested on: RAW264.7; test: Antiinflammatory activity in LPS-stimulated mouse RAW264.7 cells assessed as reduction in IL-1beta expression at 10 uM co-incubated with LPS for 24 hrs by RT-PCR method relative to untreated control; assay type: functional
[41] = tested on: RAW264.7; test: Antiinflammatory activity in LPS-stimulated mouse RAW264.7 cells assessed as reduction in COX2 expression at 20 uM co-incubated with LPS for 24 hrs by RT-PCR method relative to untreated control; assay type: functional
[42] = tested on: RAW264.7; test: Antiinflammatory activity in LPS-stimulated mouse RAW264.7 cells assessed as reduction in IL-1beta expression at 30 uM co-incubated with LPS for 24 hrs by RT-PCR method relative to untreated control; assay type: functional
[43] = tested on: RAW264.7; test: Antiinflammatory activity in LPS-stimulated mouse RAW264.7 cells assessed as reduction in nitric oxide production at 20 uM after 24 hrs by Griess method based ELISA (reference value: 52.4 +/- 0.9 uM); assay type: functional
[44] = tested on: RAW264.7; test: Antiinflammatory activity in LPS-stimulated mouse RAW264.7 cells assessed as reduction in TNFalpha expression at 10 uM co-incubated with LPS for 24 hrs by RT-PCR method relative to untreated control; assay type: functional
[45] = tested on: RAW264.7; test: Antiinflammatory activity in LPS-stimulated mouse RAW264.7 cells assessed as reduction in iNOS expression at 20 uM co-incubated with LPS for 24 hrs by RT-PCR method relative to untreated control; assay type: functional

CC(C)=CCC[C@@H](C)[C@H]1CC[C@@]2(C)[C@@H]3CC=C4C(C)(C)[C@@H](O[C@@H]5O[C@H](CO[C@@H]6O[C@H](CO[C@@H]7O[C@H](CO)[C@@H](O)[C@H](O)[C@H]7O)[C@@H](O)[C@H](O)[C@H]6O)[C@@H](O)[C@H](O)[C@H]5O)CC[C@]4(C)[C@H]3CC[C@]12C
Activity [1]: Non-toxic | fold change (FC) [2]: 0.5 | inhibition [3]: Active | inhibition [4]: Dose-dependent effect | fold change (FC) [5]: 0.9 | fold change (FC) [6]: 1 | fold change (FC) [7]: 0.6 | fold change (FC) [8]: 0.7 | fold change (FC) [9]: 0.4 | fold change (FC) [10]: 0.6 | fold change (FC) [11]: 1 | fold change (FC) [12]: 0.5 | IC50 [13]: 86.7 µg/mL (≈ 94.9 µM) | viability at 24 h, 120 µM [14]: 155% | viability at 24 h, 80 µM [15]: 145% | Activity [16]: 19.8 µM | Activity [17]: 27.5 µM | fold change (FC) [18]: 0.9 | fold change (FC) [19]: 0.8 | fold change (FC) [20]: 1 | fold change (FC) [21]: 1.1 | viability at 24 h, 40 µM [22]: 121% | Activity [23]: 40.9 µM | fold change (FC) [24]: 1 | fold change (FC) [25]: 1.1

C[C@@H]1[C@H]2[C@H]3C[C@H](O)[C@@H]4[C@@]5(C)CC[C@H](O[C@H]6O[C@H](CO[C@H]7O[C@H](CO[C@H]8O[C@H](CO[C@H]9O[C@H](CO)[C@@H](O)[C@H](O)[C@H]9O)[C@@H](O)[C@H](O)[C@H]8O)[C@@H](O)[C@H](O)[C@H]7O)[C@@H](O)[C@H](O)[C@H]6O)C(C)(C)[C@@H]5CC[C@@]4(C)[C@]3(C)CC[C@@]2(C)CC[C@H]1C
Activity [1]: Non-toxic | fold change (FC) [26]: 0.5 | viability at 24 h, 10 µM [27]: 111% | fold change (FC) [28]: 0.7 | inhibition [4]: Dose-dependent effect | fold change (FC) [29]: 0.7 | fold change (FC) [30]: 0.6 | fold change (FC) [31]: 0.5 | Activity [32]: 46.4 µM | fold change (FC) [33]: 0.6 | fold change (FC) [34]: 0.7 | inhibition [35]: Active | IC50 [13]: 25.9 µg/mL (≈ 23.7 µM) | fold change (FC) [36]: 0.5 | fold change (FC) [37]: 0.7 | viability at 24 h, 20 µM [38]: 126% | fold change (FC) [39]: 0.4 | fold change (FC) [40]: 0.7 | fold change (FC) [41]: 0.6 | fold change (FC) [42]: 0.6 | Activity [43]: 39.8 µM | viability at 24 h, 40 µM [22]: 98.7% | fold change (FC) [44]: 0.6 | fold change (FC) [45]: 0.7 | Activity [23]: 7.1 µM

From ChEMBL document CHEMBL3352216, “Triterpene glycosides from red ginseng marc and their anti-inflammatory activities” (Bioorg Med Chem Lett, 2014)
